Data set [1] deals with BC cell lines. As to the kind of experiment: Clonogenic survival assay. Type of data set: cell-based, human. To be noted: 50 μM. As for the experimental part:
Cells were plated on 6-well plates (200˜500 cells/well). After compound 1 (50 μM) treatment, cells were incubated for 2-3 weeks without changing media. Colonies were fixed in Methanol-Acetic Acid solution (3:1) and stained with crystal violet (0.5%). After washing, colonies were photographed and counted.

A short description of data set [2]: Maximum tolerated dose (MTD) test. To be noted: up to 20 mg/kg, 2 weeks, athymic nude mice. The data set is classed as in vivo. The text has this: Animal maintenance and experimental protocols are in accordance with the guidelines of the University of Maryland's Institutional Animal Care and Use Committee.
The subject of data set [3] is MCF10A non-malignant mammary epithelial cells. As to the kind of experiment: Mammosphere formation of non-malignant cells. The data set is classed as cell-based, human.
Data set [4] concerns COX-2 and NF-κb promoter. As to the kind of experiment: Luciferase reporter assay of promoters without Runt binding sequences. The conditions noted are these: MCF7-RUNX2 and MCF7-Empty cells, 0˜50 mM, 24 hrs. The data set is classed as cell-based, human. As for the experimental part: Cells were plated in 96-well plates (30,000 cells/well) and incubated overnight. Cells were co-transfected with indicated luciferase-reporter plasmids (25 ng/well) and pSV-Renilla-Luc (Promega) (15 ng/well) for 6 hrs and compound 1 ([…]) was further treated for 18-48 hrs. COX-2 (P2-274)-Luc (−170bp˜+104bp) and control plasmids (PXP2-Luc) were kindly provided byDr. Miguel A. Iñiguez (Universidad Autónoma de Madrid, Spain), and pNF-kb-Luc was from Dr. Hancai Dan (University of Maryland). Luciferase assay was performed using the Dual-Glo Luciferase Assay Systems as per manufacturer's recommendation (Promega).
Background: A reporter such as luciferase makes a cellular process visible.

Data set [5] deals with MDA-231, MCF7, MDA-468, BT474 cells. Briefly: Combination of compound 1 and CDK inhibitors, cell proliferation and colony assays. The data set is classed as cell-based, human.
The subject of data set [6] is Br-001 tumor. As to the kind of experiment: TNBC-PDX Br-001 model. To be noted: 10 mg/kg. Type of data set: in vivo, nude mice. As for the experimental part:
For the PDX models, Br-001 tumor fragments derived from a patient with TNBC (University of Maryland, Translational Core Facility) were inoculated subcutaneously in female NOD scid gamma (NSG) mice (P1). After P1 tumors were grown, tumors were excised, fragmented and inoculated to a new group of NSG mice (P2). After P2 tumors were grown, they were excised, fragmented, and inoculated into nude mice (P3). When the size of the tumors reached 200˜250 mm^3, mice were randomized into two groups, and received i.p. injection of vehicle or compound 1 (10 mg/kg) twice a week for 11 days.

The results in this text go back to patent US11634381B2, “RUNX2 transcription factor inhibitors and uses thereof” (University of Maryland, Baltimore, priority 2015, dated 2023).

Regarding `O=C(O)C1C2C=CC(C2)C1C(=O)Nc1ccc(Cl)c(Cl)c1` (stereo not drawn) [compound 1, 3-(N-(3,4-dichlorophenyl)carbamoyl)-5-norbornene-2-carboxylic acid], the clonogenic survival entry is “less than 50%” in data set [1] (2˜3 weeks, 11 out of 13 BC cells); over 50% in data set [1] (2˜3 weeks, MDA-231 and Hs578t); “did not survive” in data set [1] (2˜3 weeks, MDA-468 and BT474). Moreover, the clonogenic cell survival entry in data set [1] (2˜3 weeks, BT549, HCC70, MDA-468, MCF7, HCC361, BT474) is listed as “less than 10%”. For the same compound, the clonogenicity entry in data set [1] (T47D-Empty and T47D-RUNX2 cells, 14 days) is given as “dramatically diminished”. For the same compound, the “influence on body weight or general health” value in data set [2] is listed as “no detectable influence”. Also, the mammosphere formation result in data set [3] is given as “did not have a significant influence”. For the same compound, the “COX-2 (P2-274)-Luc or pNF-κb-Luc promoter activities” value in data set [4] is “no inhibitory effect”. Further, in data set [5], the “growth inhibition of BT474 cells” value is recorded as “sensitive”. In addition, the Ki-67 expression result in data set [6] (i.p.) is “markedly reduced”. Besides, in data set [6] (i.p., 11 days), the tumor volume result is “significant decrease”. Besides, in data set [6] (nude mice), the “body weight and general health” value is listed as “did not significantly decrease body weight”.
